Data as given in article PMC6429214, “Design, Synthesis and Biological Evaluation of Isoxazole-Based CK1 Inhibitors Modified with Chiral Pyrrolidine Scaffolds” (Molecules, 2019).

Experiments:
Test in all cases: 33PanQinase panel
Assay type in all cases: biochemical
DYRK1A = target: T1, DYRK1A (Homo sapiens, UniProt Q13627); settings: read-out: Residual Activity (%)
T1 construct: purchased ProQinase
In short: (§1)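 Single-point screen at 1 µM in a 320 wild-type kinase panel using activity-based radiometric 33P assay; final DMSO 1%. Values are percent residual kinase activity relative to DMSO control.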

SLK = target: T2, SLK (Homo sapiens, UniProt Q9H2G2); settings: read-out: Residual Activity (%)
T2 construct: purchased ProQinase
In short: as §1

EPHA5 = target: T3, EPHA5 (Homo sapiens, UniProt P54756); settings: EPHA5, 1 µM; read-out: Residual Activity (%)
T3 construct: purchased ProQinase
In short: as §1

LCK = target: T4, LCK (Homo sapiens, UniProt P06239); settings: read-out: Residual Activity (%)
T4 construct: purchased ProQinase
T4 sequence (P06239 whole entry): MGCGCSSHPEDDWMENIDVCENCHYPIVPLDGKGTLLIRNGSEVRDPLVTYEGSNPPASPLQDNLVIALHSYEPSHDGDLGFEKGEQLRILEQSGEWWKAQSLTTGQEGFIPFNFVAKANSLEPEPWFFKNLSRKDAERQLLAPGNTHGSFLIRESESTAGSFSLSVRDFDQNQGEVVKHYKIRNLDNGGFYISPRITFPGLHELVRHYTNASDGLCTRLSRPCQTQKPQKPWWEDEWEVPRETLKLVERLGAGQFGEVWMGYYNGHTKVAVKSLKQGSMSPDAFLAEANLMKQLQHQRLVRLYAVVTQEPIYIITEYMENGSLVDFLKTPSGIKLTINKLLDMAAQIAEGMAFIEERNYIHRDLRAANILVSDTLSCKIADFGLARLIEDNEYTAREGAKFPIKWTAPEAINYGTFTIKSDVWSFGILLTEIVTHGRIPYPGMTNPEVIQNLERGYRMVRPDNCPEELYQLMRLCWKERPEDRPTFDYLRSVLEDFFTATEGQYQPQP
In short: as §1

SYK aa1-635 = target: T5, SYK aa1-635 (Homo sapiens, UniProt P43405); settings: SYK aa1-635, 1 µM; read-out: Residual Activity (%)
T5 construct: purchased ProQinase
In short: as §1

TTBK2 = target: T6, TTBK2 (Homo sapiens, UniProt Q6IQ55); settings: TTBK2, 1 µM; read-out: Residual Activity (%)
T6 construct: purchased ProQinase
In short: as §1

FGR = target: T7, FGR (Homo sapiens, UniProt P09769); settings: read-out: Residual Activity (%)
T7 construct: purchased ProQinase
In short: as §1

PAK6 = target: T8, PAK6 (Homo sapiens, UniProt Q9NQU5); settings: PAK6, 1 µM; read-out: Residual Activity (%)
T8 construct: purchased ProQinase
In short: as §1

ITK = target: T9, ITK (Homo sapiens, UniProt Q08881); settings: read-out: Residual Activity (%)
T9 construct: purchased ProQinase
T9 sequence (Q08881 whole entry): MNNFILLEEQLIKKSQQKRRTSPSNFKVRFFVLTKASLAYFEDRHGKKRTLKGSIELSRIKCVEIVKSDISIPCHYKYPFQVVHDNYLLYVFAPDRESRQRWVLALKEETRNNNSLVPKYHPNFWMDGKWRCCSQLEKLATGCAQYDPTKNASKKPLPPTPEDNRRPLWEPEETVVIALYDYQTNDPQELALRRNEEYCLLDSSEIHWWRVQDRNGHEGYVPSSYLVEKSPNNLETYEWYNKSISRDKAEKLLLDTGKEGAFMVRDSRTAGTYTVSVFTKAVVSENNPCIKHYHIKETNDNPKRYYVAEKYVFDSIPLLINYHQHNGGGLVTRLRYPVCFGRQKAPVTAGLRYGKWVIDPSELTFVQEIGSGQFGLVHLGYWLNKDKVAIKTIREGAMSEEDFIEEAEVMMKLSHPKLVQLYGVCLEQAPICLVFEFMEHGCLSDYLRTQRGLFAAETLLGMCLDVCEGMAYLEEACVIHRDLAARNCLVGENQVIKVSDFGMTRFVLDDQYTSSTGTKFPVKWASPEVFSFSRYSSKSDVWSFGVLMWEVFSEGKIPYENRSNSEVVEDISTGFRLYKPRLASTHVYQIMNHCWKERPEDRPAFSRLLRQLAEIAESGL
In short: as §1

CDK5/p35NCK = target: T10, CDK5/p35NCK (Homo sapiens, UniProt Q00535); settings: read-out: Residual Activity (%)
T10 construct: purchased ProQinase
In short: as §1

GSK3-alpha = target: T11, GSK3-alpha (Homo sapiens, UniProt P49840); settings: read-out: Residual Activity (%)
T11 construct: purchased ProQinase
In short: as §1

CHK1 = target: T12, CHK1 (Homo sapiens, UniProt O14757); settings: CHK1, 1 µM; read-out: Residual Activity (%)
T12 construct: purchased ProQinase
In short: as §1

PIM1 = target: T13, PIM1 (Homo sapiens, UniProt P11309); settings: PIM1, 1 µM; read-out: Residual Activity (%)
T13 construct: purchased ProQinase
In short: as §1

EPHB1 = target: T14, EPHB1 (Homo sapiens, UniProt P54762); settings: EPHB1, 1 µM; read-out: Residual Activity (%)
T14 construct: purchased ProQinase
In short: as §1

RPS6KA3 = target: T15, RPS6KA3 (Homo sapiens, UniProt P51812); settings: RPS6KA3, 1 µM; read-out: Residual Activity (%)
T15 construct: purchased ProQinase
In short: as §1

PKC-epsilon = target: T16, PKC-epsilon (Homo sapiens, UniProt Q02156); settings: read-out: Residual Activity (%)
T16 construct: purchased ProQinase
In short: as §1

CAMK4 = target: T17, CAMK4 (Homo sapiens, UniProt Q16566); settings: CAMK4, 1 µM; read-out: Residual Activity (%)
T17 construct: purchased ProQinase
T17 sequence (Q16566 whole entry): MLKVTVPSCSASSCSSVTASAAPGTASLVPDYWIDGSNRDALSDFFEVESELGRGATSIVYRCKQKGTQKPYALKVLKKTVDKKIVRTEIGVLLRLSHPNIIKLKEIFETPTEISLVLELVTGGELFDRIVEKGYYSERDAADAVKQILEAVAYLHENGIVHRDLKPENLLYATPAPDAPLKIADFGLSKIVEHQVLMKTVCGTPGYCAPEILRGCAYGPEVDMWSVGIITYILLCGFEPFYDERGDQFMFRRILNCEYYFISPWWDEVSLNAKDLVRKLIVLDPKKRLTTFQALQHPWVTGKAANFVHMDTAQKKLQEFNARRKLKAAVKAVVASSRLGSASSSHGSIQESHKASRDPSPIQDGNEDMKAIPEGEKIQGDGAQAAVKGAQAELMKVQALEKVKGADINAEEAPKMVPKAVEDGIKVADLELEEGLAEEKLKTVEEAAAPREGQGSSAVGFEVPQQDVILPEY
In short: as §1

GRK4 = target: T18, GRK4 (Homo sapiens, UniProt P32298); settings: GRK4, 1 µM; read-out: Residual Activity (%)
T18 construct: purchased ProQinase
In short: as §1

MAP3K7/MAP3K7IP1 = target: T19, MAP3K7/MAP3K7IP1 (Homo sapiens, UniProt O43318); settings: MAP3K7/MAP3K7IP1, 1 µM; read-out: Residual Activity (%)
T19 construct: purchased ProQinase
In short: as §1

MAPKAPK3 = target: T20, MAPKAPK3 (Homo sapiens, UniProt Q16644); settings: MAPKAPK3, 1 µM; read-out: Residual Activity (%)
T20 construct: purchased ProQinase
T20 sequence (Q16644 whole entry): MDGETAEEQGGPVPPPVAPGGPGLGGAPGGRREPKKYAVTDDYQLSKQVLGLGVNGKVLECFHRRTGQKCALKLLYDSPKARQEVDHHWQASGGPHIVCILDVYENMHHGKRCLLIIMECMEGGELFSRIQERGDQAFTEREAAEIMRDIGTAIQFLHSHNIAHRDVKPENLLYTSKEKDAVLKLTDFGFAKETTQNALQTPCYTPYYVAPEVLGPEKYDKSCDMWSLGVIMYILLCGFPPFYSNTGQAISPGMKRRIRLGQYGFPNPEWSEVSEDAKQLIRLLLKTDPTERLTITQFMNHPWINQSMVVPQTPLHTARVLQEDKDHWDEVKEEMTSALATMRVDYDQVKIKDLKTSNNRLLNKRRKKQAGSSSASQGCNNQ
In short: as §1

BRSK1 = target: T21, BRSK1 (Homo sapiens, UniProt Q8TDC3); settings: BRSK1, 1 µM; read-out: Residual Activity (%)
T21 construct: purchased ProQinase
In short: as §1

NLK = target: T22, NLK (Homo sapiens, UniProt Q9UBE8); settings: read-out: Residual Activity (%)
T22 construct: purchased ProQinase
In short: as §1

PKMYT1 = target: T23, PKMYT1 (Homo sapiens, UniProt Q99640); settings: PKMYT1, 1 µM; read-out: Residual Activity (%)
T23 construct: purchased ProQinase
In short: as §1

JAK1 aa583-1154 wt = target: T24, JAK1 aa583-1154 wt (Homo sapiens, UniProt P23458); settings: read-out: Residual Activity (%)
T24 construct: purchased ProQinase
In short: as §1

BMPR1A = target: T25, BMPR1A (Homo sapiens, UniProt P36894); settings: read-out: Residual Activity (%)
T25 construct: purchased ProQinase
T25 sequence (P36894 24-532): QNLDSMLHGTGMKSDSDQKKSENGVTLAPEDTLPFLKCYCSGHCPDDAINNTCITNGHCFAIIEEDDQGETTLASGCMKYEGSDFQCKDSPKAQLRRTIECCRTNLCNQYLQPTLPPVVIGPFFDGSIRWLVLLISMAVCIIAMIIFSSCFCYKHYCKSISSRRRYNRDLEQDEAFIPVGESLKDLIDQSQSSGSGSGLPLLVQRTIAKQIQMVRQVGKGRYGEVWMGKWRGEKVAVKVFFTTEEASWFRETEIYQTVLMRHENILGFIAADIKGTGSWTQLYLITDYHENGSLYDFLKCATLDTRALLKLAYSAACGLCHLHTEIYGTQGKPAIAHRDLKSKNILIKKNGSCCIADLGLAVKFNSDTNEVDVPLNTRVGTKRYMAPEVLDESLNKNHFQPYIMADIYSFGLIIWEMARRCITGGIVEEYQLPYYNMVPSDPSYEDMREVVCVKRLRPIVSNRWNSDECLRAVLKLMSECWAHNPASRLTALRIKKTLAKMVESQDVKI
In short: as §1

SNARK = target: T26, SNARK (Homo sapiens, UniProt Q9H093); settings: read-out: Residual Activity (%)
T26 construct: purchased ProQinase
In short: as §1

ERK2 = target: T27, ERK2 (Homo sapiens, UniProt P28482); settings: ERK2, 1 µM; read-out: Residual Activity (%)
T27 construct: purchased ProQinase
In short: as §1

TYRO3 = target: T28, TYRO3 (Homo sapiens, UniProt Q06418); settings: TYRO3, 1 µM; read-out: Residual Activity (%)
T28 construct: purchased ProQinase
T28 sequence (Q06418 41-890): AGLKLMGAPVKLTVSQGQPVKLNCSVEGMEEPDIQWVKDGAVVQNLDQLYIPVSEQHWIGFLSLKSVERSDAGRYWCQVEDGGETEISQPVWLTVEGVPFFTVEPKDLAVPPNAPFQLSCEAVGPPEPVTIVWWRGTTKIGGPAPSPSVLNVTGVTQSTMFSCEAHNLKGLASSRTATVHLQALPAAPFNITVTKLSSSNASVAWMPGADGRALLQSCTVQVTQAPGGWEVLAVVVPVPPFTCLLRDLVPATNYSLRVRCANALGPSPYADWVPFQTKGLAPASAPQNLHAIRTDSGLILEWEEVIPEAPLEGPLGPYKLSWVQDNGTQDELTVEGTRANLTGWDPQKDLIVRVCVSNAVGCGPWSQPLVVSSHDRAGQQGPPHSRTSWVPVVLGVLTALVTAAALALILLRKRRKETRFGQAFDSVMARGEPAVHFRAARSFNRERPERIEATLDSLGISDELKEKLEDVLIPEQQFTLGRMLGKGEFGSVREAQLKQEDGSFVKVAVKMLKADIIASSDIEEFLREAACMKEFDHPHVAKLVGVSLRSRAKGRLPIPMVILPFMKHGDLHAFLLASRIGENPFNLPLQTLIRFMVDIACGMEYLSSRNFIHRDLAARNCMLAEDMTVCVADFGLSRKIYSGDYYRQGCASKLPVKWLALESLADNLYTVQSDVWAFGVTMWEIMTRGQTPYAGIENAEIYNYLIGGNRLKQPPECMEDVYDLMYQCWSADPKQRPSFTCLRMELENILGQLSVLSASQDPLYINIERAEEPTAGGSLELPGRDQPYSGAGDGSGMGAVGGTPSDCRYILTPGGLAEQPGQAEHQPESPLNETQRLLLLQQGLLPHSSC
In short: as §1

SIK1 = target: T29, SIK1 (Homo sapiens, UniProt P57059); settings: SIK1, 1 µM; read-out: Residual Activity (%)
T29 construct: purchased ProQinase
T29 sequence (P57059 whole entry): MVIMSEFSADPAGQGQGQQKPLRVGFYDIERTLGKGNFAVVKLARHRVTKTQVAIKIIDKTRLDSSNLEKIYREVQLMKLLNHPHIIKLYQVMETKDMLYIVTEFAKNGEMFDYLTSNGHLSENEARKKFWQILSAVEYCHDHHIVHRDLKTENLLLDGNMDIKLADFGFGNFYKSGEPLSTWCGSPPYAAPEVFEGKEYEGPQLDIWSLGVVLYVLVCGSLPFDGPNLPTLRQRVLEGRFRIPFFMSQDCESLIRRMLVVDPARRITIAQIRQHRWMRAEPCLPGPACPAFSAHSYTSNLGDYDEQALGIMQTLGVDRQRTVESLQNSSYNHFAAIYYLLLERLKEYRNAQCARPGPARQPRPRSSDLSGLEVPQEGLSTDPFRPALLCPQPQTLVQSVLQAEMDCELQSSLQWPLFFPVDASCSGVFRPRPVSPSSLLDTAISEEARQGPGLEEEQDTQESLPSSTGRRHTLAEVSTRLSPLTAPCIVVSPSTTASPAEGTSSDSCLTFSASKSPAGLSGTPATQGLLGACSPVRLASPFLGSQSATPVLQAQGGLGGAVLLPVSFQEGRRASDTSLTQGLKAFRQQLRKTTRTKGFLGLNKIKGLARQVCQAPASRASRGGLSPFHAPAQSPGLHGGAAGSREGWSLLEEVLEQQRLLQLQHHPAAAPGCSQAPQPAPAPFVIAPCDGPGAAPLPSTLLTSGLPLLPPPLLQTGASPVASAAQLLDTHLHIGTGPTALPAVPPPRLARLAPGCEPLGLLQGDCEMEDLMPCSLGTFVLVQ
In short: as §1

LTK = target: T30, LTK (Homo sapiens, UniProt P29376); settings: read-out: Residual Activity (%)
T30 construct: purchased ProQinase
T30 sequence (P29376 17-864): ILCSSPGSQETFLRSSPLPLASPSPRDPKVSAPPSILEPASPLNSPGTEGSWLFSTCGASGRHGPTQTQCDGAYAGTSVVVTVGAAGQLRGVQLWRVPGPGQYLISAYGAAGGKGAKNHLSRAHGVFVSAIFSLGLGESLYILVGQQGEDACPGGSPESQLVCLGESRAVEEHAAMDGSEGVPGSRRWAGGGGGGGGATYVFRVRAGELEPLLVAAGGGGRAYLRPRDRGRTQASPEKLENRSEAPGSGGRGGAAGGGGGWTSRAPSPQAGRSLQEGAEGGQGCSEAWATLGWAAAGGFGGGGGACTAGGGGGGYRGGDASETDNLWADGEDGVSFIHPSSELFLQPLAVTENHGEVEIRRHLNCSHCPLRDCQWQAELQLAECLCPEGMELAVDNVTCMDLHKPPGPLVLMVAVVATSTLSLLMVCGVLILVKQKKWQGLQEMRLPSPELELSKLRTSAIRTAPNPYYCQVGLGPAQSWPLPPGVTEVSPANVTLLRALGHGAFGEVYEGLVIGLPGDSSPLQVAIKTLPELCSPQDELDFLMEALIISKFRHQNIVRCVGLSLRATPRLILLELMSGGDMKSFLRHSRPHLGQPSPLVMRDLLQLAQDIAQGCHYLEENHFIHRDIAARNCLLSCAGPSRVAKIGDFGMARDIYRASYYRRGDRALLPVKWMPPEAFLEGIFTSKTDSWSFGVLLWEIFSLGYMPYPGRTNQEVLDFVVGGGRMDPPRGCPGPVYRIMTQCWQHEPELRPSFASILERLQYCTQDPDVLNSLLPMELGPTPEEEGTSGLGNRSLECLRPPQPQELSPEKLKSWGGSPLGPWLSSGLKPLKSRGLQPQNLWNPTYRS
In short: as §1

## COc1ccc(-c2cc(C(=O)Nc3cc(-c4c(-c5ccc(F)cc5)noc4C(C)C)ccn3)n(CC3NCC(O)C3O)c2)cc1 (stereo not drawn) [29d]
DYRK1A
  remaining activity at 1 µM: 120%
SLK
  remaining activity at 1 µM: 114%
EPHA5
  remaining activity at 1 µM: 103%
LCK
  remaining activity at 1 µM: 96%
SYK aa1-635
  remaining activity at 1 µM: 148%
TTBK2
  remaining activity at 1 µM: 101%
FGR
  remaining activity at 1 µM: 107%
PAK6
  remaining activity at 1 µM: 83%
ITK
  remaining activity at 1 µM: 114%
CDK5/p35NCK
  remaining activity at 1 µM: 100%
GSK3-alpha
  remaining activity at 1 µM: 103%
CHK1
  remaining activity at 1 µM: 97%
PIM1
  remaining activity at 1 µM: 94%
EPHB1
  remaining activity at 1 µM: 108%
RPS6KA3
  remaining activity at 1 µM: 107%
PKC-epsilon
  remaining activity at 1 µM: 84%
CAMK4
  remaining activity at 1 µM: 102%
GRK4
  remaining activity at 1 µM: 111%
MAP3K7/MAP3K7IP1
  remaining activity at 1 µM: 95%
MAPKAPK3
  remaining activity at 1 µM: 91%
BRSK1
  remaining activity at 1 µM: 104%
NLK
  remaining activity at 1 µM: 71%
PKMYT1
  remaining activity at 1 µM: 107%
JAK1 aa583-1154 wt
  remaining activity at 1 µM: 104%
BMPR1A
  remaining activity at 1 µM: 96%
SNARK
  remaining activity at 1 µM: 123%
ERK2
  remaining activity at 1 µM: 104%
TYRO3
  remaining activity at 1 µM: 115%
SIK1
  remaining activity at 1 µM: 92%
LTK
  remaining activity at 1 µM: 98%
